Assays:
[1] = tested on: Rattus norvegicus; assay: In vivo receptor occupancy at GABAA receptor in po dosed Sprague-Dawley rat assessed as spinal cord concentration causing 50% reduction in [3H]-flumazenil receptor labeling after 1 hr by scintillation counting method; format: functional
[2] = tested on: Rattus norvegicus; assay: In vivo receptor occupancy at GABAA receptor in po dosed Sprague-Dawley rat assessed as forebrain concentration causing 50% reduction in [3H]-flumazenil receptor labeling after 1 hr by scintillation counting method; format: functional
[3] = molecular target: T1, Gamma-aminobutyric acid receptor subunit alpha-2 (Homo sapiens) (UniProt P47869); assay: Positive allosteric modulation of GABAA alpha2 (unknown origin) relative to control
T1 sequence (whole entry): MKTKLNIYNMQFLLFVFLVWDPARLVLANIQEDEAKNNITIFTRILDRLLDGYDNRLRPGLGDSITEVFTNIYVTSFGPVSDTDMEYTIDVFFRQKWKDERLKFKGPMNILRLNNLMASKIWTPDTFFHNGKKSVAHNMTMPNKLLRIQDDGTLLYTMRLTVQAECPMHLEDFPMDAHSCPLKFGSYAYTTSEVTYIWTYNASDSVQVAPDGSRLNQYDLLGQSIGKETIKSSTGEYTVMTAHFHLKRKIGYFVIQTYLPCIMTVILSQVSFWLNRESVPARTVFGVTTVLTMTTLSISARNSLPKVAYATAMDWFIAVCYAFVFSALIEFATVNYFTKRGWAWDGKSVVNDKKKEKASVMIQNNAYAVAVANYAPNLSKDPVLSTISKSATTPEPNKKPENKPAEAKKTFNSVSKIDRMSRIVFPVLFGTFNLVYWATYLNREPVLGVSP

[4] = molecular target: T2, Gamma-aminobutyric acid receptor subunit alpha-1 (Homo sapiens) (UniProt P14867); assay: Positive allosteric modulation of GABAA alpha1 (unknown origin) relative to control
T2 sequence (whole entry): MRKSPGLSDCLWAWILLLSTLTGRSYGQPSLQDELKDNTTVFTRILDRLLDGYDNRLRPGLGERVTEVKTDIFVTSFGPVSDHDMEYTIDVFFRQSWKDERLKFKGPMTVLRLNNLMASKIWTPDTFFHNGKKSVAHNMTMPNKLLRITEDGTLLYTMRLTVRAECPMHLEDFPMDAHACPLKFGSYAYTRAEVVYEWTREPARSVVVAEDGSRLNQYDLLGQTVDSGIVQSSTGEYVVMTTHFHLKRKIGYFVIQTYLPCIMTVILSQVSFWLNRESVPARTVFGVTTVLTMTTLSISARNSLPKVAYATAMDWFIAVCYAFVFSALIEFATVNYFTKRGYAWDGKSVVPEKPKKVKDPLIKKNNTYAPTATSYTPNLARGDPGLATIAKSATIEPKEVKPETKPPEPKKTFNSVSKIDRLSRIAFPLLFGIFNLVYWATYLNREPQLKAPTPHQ

[5] = molecular target: T1, Gamma-aminobutyric acid receptor subunit alpha-2 (Homo sapiens); assay: Binding affinity to GABA-A alpha2 (unknown origin) assessed as increase in induced current relative to control
[6] = tested on: Homo sapiens; assay: In vivo receptor occupancy GABAA receptor in human assessed as whole brain concentration causing reduction in [11C]flumazenil receptor labeling at 10 mg after […] by PET method relative to control; format: functional
[7] = molecular target: T3, Gamma-aminobutyric acid receptor subunit alpha-5 (Homo sapiens) (UniProt P31644); assay: Binding affinity to GABA-A alpha5 (unknown origin) assessed as increase in induced current relative to control
T3 sequence (whole entry): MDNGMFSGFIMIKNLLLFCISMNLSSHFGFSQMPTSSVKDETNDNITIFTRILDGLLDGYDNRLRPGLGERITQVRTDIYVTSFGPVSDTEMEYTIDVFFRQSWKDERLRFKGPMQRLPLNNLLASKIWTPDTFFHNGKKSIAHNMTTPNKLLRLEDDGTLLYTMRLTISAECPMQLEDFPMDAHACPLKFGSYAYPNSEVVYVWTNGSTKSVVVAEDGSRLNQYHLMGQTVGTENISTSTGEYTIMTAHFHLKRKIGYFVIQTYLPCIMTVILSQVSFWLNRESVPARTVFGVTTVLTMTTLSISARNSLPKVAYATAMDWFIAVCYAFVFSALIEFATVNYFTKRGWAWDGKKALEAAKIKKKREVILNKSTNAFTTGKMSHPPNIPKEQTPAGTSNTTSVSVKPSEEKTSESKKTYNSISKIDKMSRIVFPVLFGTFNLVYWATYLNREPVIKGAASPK

[8] = Intrinsic clearance in human liver microsomes; format: ADME, Microsome; details: read-out: CLH
[9] = Half life in human at 0.04 to 100 mg, po; format: ADME; details: in vivo
[10] = tested on: Rattus norvegicus; assay: In vivo receptor occupancy at GABAA receptor in po dosed Sprague-Dawley rat assessed as cerebellum concentration causing 50% reduction in [3H]-flumazenil receptor labeling after 1 hr by scintillation counting method; format: functional
[11] = tested on: Homo sapiens; assay: In vivo receptor occupancy GABAA receptor in human assessed as whole brain concentration causing reduction in [11C]flumazenil receptor labeling at 65 mg after […] by PET method relative to control; format: functional
[12] = Half life in rat at 1 mg/kg, po; format: ADME, organism-based; details: in vivo
[13] = molecular target: T4, Gamma-aminobutyric acid receptor subunit alpha-3 (Homo sapiens) (UniProt P34903); assay: Binding affinity to GABA-A alpha3 (unknown origin) assessed as increase in induced current relative to control
T4 sequence (whole entry): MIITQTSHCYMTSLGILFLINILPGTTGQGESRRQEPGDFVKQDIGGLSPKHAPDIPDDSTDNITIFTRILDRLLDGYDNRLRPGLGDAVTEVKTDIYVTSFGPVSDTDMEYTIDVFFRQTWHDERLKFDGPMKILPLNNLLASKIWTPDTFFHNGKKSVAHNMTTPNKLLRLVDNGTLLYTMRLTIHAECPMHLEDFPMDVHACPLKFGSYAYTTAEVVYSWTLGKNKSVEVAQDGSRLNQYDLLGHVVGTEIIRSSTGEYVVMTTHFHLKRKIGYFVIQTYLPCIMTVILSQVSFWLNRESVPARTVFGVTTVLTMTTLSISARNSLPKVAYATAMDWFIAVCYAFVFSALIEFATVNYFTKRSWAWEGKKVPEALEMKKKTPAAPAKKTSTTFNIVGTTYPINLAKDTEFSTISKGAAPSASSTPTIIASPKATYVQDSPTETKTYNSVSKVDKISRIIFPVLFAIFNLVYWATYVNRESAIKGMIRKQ

[14] = molecular target: T2, Gamma-aminobutyric acid receptor subunit alpha-1 (Homo sapiens); assay: Binding affinity to GABA-A alpha1 (unknown origin) assessed as increase in induced current relative to control
[15] = Displacement of [3H]-flumazenil from human GABAA alpha2beta3gamma2 expressed in HEK293 cell membranes measured after 2 hrs by liquid scintillation counting method

## CCn1cnc2c(-c3ccc(F)c(-c4ccc(S(=O)(=O)CC)cc4OC)c3)cnnc21 [DARIGABAT]
[1]
  Occ50: 0.3 to 1 mg/kg
[2]
  Occ50: 0.3 to 1 mg/kg
[3]
  Activity: > 50%
[4]
  Activity: < 20%
[5]
  fold change (FC): 0.35
[6]
  Occ: 69%
[7]
  fold change (FC): 0.7
[8]
  microsomal CLint: < 20 µL/min/mg
[9]
  half-life: 6 to 8.9 h
[10]
  Occ50: 0.3 to 1 mg/kg
[11]
  Occ: 89%
[12]
  half-life: 5.5 h
[13]
  fold change (FC): 0.49
[14]
  fold change (FC): 0.11
[15]
  Ki: 2.92 nM
